Data from patent US8354436B2 (4SC Discovery GmbH, priority 2011, dated 2013).
Like-named read-outs stand apart in the source and are kept apart here.

What was measured:
Type in all cases: cell-based
Conditions in all cases: 48 hours
IL-17FF = IL-17FF production by PHA-stimulated human PBMC (human IL-17F ELI-Pair)
Summary of the method: (§1)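 Healthy-donor PBMC (1×10^5 cells/well) activated with 2 μg/ml PHA and incubated with compounds for 48 h. Supernatant IL-17AA/AF read by Luminex BioPlex, IL-17AA, IL-17FF and IFN-γ by ELISA. Screening at 10, 1, 0.1 and 0.01 μM; IC50 from semilogarithmic titrations.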

IFN-γ = IFN-γ production by PHA-stimulated human PBMC (OptEIA human IFN-g ELISA)
Summary of the method: as §1

[1] = system: PBMC from healthy human donors; assay: T cell proliferation assay (PHA-stimulated human PBMC, BrdU ELISA)
Summary of the method: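 Healthy-donor PBMC isolated on Ficoll, seeded at 1×10⁵ cells/well in RPMI with 10% dialysed FCS, stimulated with 2 μg/ml PHA in presence of test compound. Proliferation read after 48 hours by BrdU-incorporation ELISA.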

[2] = human PBMC, 2 μg/ml PHA, read-out: B: IC50 (IL-17FF)
[3] = human PBMC, 2 μg/ml PHA, read-out: C: IC50 (IFNγ)
[4] = human PBMC, 2 μg/ml PHA, read-out: D: IC50 (Tcell proliferation)
[5] = PHA-stimulated human PBMC, column B, read-out: IC50 (IL-17FF)
[6] = PHA-stimulated human PBMC, column C, read-out: IC50 (IFNγ)
[7] = PHA-stimulated human PBMC, column D, read-out: IC50 (Tcell proliferation)

`Cc1nnc(-c2c(-c3c(F)cccc3Cl)noc2-c2cnn(-c3cccnc3)c2C(F)(F)F)s1` [Example B-21, 3-(2-chloro-6-fluorophenyl)-4-(5-methyl-1,3,4-thiadiazol-2-yl)-5-(1-(pyridin-3-yl)-5-(trifluoromethyl)-1H-pyrazol-4-yl)isoxazole] was tested, and the IC50 (IL-17FF; [2]) was 10 to 100 nM, the IC50 (IFN-γ; [3]) was 10 to 100 nM and the IC50 [1, 4] was 10 to 100 nM.
Work on `CNC(=O)c1c(-c2ccccc2Cl)noc1-c1cnn(-c2cccc(F)c2)c1C(F)(F)F` [Example I-96, 3-(2-chlorophenyl)-5-(1-(3-fluorophenyl)-5-(trifluoro-methyl)-1H-pyrazol-4-yl)-N-methylisoxazole-4-carboxamide] yielded an IC50 (IL-17FF; [5]) of 100 to 1000 nM, an IC50 (IFN-γ; [6]) of 100 to 1000 nM and an IC50 [1, 7] of 100 to 1000 nM.
In the case of `Fc1cccc(Cl)c1-c1noc(-c2cnn(-c3ccncc3)c2C(F)(F)F)c1-c1cnco1` [Example B-33, 3-(2-chloro-6-fluorophenyl)-4-(oxazol-5-yl)-5-(1-(pyridin-4-yl)-5-(trifluoromethyl)-1H-pyrazol-4-yl)isoxazole], the IC50 (IL-17FF; [2]) is reported as 1000 to 10000 nM, the IC50 (IFN-γ; [3]) is reported as 100 to 1000 nM and the IC50 [1, 4] is reported as 1000 to 10000 nM.
With `CCOC(=O)c1c(-c2c(Cl)cncc2Cl)noc1-c1cnn(-c2ccccn2)c1C(F)(F)F` [IB-5, ethyl 3-(3,5-dichloropyridin-4-yl)-5-(1-(pyridin-2-yl)-5-(trifluoromethyl)-1H-pyrazol-4-yl)isoxazole-4-carboxylate] the IC50 (IL-17FF; [5]) was 1000 to 10000 nM, the IC50 (IFN-γ; [6]) was 100 to 1000 nM and the IC50 [1, 7] was 1000 to 10000 nM.
`Fc1cccc(-n2ncc(-c3onc(-c4c(F)cccc4Cl)c3-c3nnn[nH]3)c2C(F)(F)F)c1` [Example 2, 3-(2-chloro-6-fluorophenyl)-5-(1-(3-fluorophenyl)-5-(trifluoromethyl)-1H-pyrazol-4-yl)-4-(1H-tetrazol-5-yl)isoxazole] showed an IC50 (IL-17FF; [2]) of 1000 to 10000 nM, an IC50 (IFN-γ; [3]) of 1000 to 10000 nM and an IC50 [1, 4] of 1000 to 10000 nM.
`CCOC(=O)c1c(-c2ccccc2F)noc1-c1cnn(-c2cccc(F)c2)c1C(F)(F)F` [Example I-90, ethyl 3-(2-fluorophenyl)-5-(1-(3-fluorophenyl)-5-(trifluoromethyl)-1H-pyrazol-4-yl)isoxazole-4-carboxylate] showed an IC50 (IL-17FF; [5]) of 100 to 1000 nM, an IC50 (IFN-γ; [6]) of 10 to 100 nM and an IC50 [1, 7] of 100 to 1000 nM.
Molecule `CON(C)C(=O)c1c(-c2c(F)cccc2Cl)noc1-c1cnn(-c2ccccc2F)c1C(F)(F)F` [IB-53, 3-(2-chloro-6-fluorophenyl)-5-(1-(2-fluorophenyl)-5-(trifluoromethyl)-1H-pyrazol-4-yl)-N-methoxy-N-methylisoxazole-4-carboxamide] has an IC50 (IL-17FF; [5]) of 100 to 1000 nM, an IC50 (IFN-γ; [6]) of 100 to 1000 nM and an IC50 [1, 7] of 100 to 1000 nM.
`O=C(c1c(-c2c(F)cccc2Cl)noc1-c1cnn(-c2ccccc2F)c1C(F)(F)F)N1CCCO1` [IB-52, (3-(2-chloro-6-fluorophenyl)-5-(1-(2-fluorophenyl)-5-(trifluoromethyl)-1H-pyrazol-4-yl)isoxazol-4-yl)(isoxazolidin-2-yl)methanone] showed an IC50 (IL-17FF; [5]) of 1000 to 10000 nM, an IC50 (IFN-γ; [6]) of 1000 to 10000 nM and an IC50 [1, 7] of 1000 to 10000 nM.
For `CCOC(=O)c1c(-c2ccncc2F)noc1-c1cnn(-c2ccccc2F)c1C(F)(F)F` [IB-15, ethyl 5-(1-(2-fluorophenyl)-5-(trifluoromethyl)-1H-pyrazol-4-yl)-3-(3-fluoropyridin-4-yl)isoxazole-4-carboxylate], the IC50 (IL-17FF; [5]) was 1000 to 10000 nM, the IC50 (IFN-γ; [6]) was 100 to 1000 nM and the IC50 [1, 7] was 100 to 1000 nM.
For `COC(=O)c1c(-c2c(Cl)cccc2Cl)noc1-c1cnn(-c2cccc(F)c2)c1C(F)(F)F` [Example I-109, methyl 3-(2,6-dichlorophenyl)-5-(1-(3-fluorophenyl)-5-(trifluoromethyl)-1H-pyrazol-4-yl)isoxazole-4-carboxylate], the IC50 (IL-17FF; [5]) was less than 10 nM, the IC50 (IFN-γ; [6]) was less than 10 nM and the IC50 [1, 7] was less than 10 nM.
For `Fc1cccc(Cl)c1-c1noc(-c2cnn(-c3cccc(Cl)c3)c2C(F)(F)F)c1-c1nnn[nH]1` [Example 3, 3-(2-chloro-6-fluorophenyl)-5-(1-(3-chlorophenyl)-5-(trifluoromethyl)-1H-pyrazol-4-yl)-4-(1H-tetrazol-5-yl)isoxazole], the IC50 (IL-17FF; [2]) was 1000 to 10000 nM, the IC50 (IFN-γ; [3]) was 1000 to 10000 nM and the IC50 [1, 4] was 1000 to 10000 nM.
`CCOC(=O)c1c(-c2ccncc2F)noc1-c1cnn(-c2cccnc2)c1C(F)(F)F` [IB-17, ethyl 3-(3-fluoropyridin-4-yl)-5-(1-(pyridin-3-yl)-5-(trifluoromethyl)-1H-pyrazol-4-yl)isoxazole-4-carboxylate] was tested, and the IC50 (IL-17FF; [5]) was 100 to 1000 nM, the IC50 (IFN-γ; [6]) was 1000 to 10000 nM and the IC50 [1, 7] was 1000 to 10000 nM.
For `Fc1cccc(Cl)c1-c1noc(-c2cnn(-c3cccc(Cl)c3)c2C(F)(F)F)c1-c1nncs1` [Example B-8, 3-(2-chloro-6-fluorophenyl)-5-(1-(3-chlorophenyl)-5-(trifluoromethyl)-1H-pyrazol-4-yl)-4-(1,3,4-thiadiazol-2-yl)isoxazole], the IC50 (IL-17FF; [2]) was less than 10 nM, the IC50 (IFN-γ; [3]) was less than 10 nM and the IC50 [1, 4] was less than 10 nM.
Molecule `N#Cc1c(-c2c(F)cccc2Cl)noc1-c1cnn(-c2cccc(Cl)c2)c1C(F)(F)F` [Example I-49, 3-(2-chloro-6-fluorophenyl)-5-(1-(3-chlorophenyl)-5-(trifluoromethyl)-1H-pyrazol-4-yl)isoxazole-4-carbonitrile] has an IC50 (IL-17FF; [5]) of 100 to 1000 nM, an IC50 (IFN-γ; [6]) of 100 to 1000 nM and an IC50 [1, 7] of 100 to 1000 nM.
`CCOC(=O)c1c(-c2onc(-c3c(F)cccc3Cl)c2C(=O)OC)cnn1-c1cccc(Cl)c1` [Example I-10, methyl 3-(2-chloro-6-fluorophenyl)-5-(1-(3-chlorophenyl)-5-(ethoxycarbonyl)-1H-pyrazol-4-yl)isoxazole-4-carboxylate] was tested, and the IC50 (IL-17FF; [5]) was 100 to 1000 nM, the IC50 (IFN-γ; [6]) was 10 to 100 nM and the IC50 [1, 7] was 10 to 100 nM.
For `Cc1nnc(-c2c(-c3c(F)cccc3Cl)noc2-c2cnn(-c3cccc(Cl)c3)c2C(F)(F)F)s1` [Example B-3, 3-(2-chloro-6-fluorophenyl)-5-(1-(3-chlorophenyl)-5-(trifluoromethyl)-1H-pyrazol-4-yl)-4-(5-methyl-1,3,4-thiadiazol-2-yl)isoxazole], the IC50 (IL-17FF; [2]) was less than 10 nM, the IC50 (IFN-γ; [3]) was less than 10 nM and the IC50 [1, 4] was less than 10 nM.
Work on `CC(=O)Nc1c(-c2c(F)cccc2Cl)noc1-c1cnn(-c2cccc(F)c2)c1C(F)(F)F` [Example I-139, N-(3-(2-chloro-6-fluorophenyl)-5-(1-(3-fluorophenyl)-5-(trifluoromethyl)-1H-pyrazol-4-yl)isoxazol-4-yl)acetamide] yielded an IC50 (IL-17FF; [5]) of 1000 to 10000 nM, an IC50 (IFN-γ; [6]) of 1000 to 10000 nM and an IC50 [1, 7] of 1000 to 10000 nM.
`COC(=O)c1c(-c2ccc(Cl)cc2Cl)noc1-c1cnn(-c2cccc(Cl)c2)c1C(F)(F)F` [IB-76, methyl 5-(1-(3-chlorophenyl)-5-(trifluoromethyl)-1H-pyrazol-4-yl)-3-(2,4-dichlorophenyl)isoxazole-4-carboxylate] was tested, and the IC50 (IL-17FF; [5]) was 10 to 100 nM, the IC50 (IFN-γ; [6]) was 100 to 1000 nM and the IC50 [1, 7] was 100 to 1000 nM.
`NS(=O)(=O)c1cccc(-n2ncc(-c3onc(-c4c(F)cccc4Cl)c3-c3nnco3)c2C(F)(F)F)c1` [Example B-17, 3-(4-(3-(2-chloro-6-fluorophenyl)-4-(1,3,4-oxadiazol-2-yl)isoxazol-5-yl)-5-(trifluoromethyl)-1H-pyrazol-1-yl)benzenesulfonamide] gave an IC50 (IL-17FF; [2]) of 1000 to 10000 nM, an IC50 (IFN-γ; [3]) of 1000 to 10000 nM and an IC50 [1, 4] of 1000 to 10000 nM.
In the case of `Fc1ccc(-n2ncc(-c3onc(-c4c(F)cccc4Cl)c3Br)c2C(F)(F)F)cc1` [IB-28, 4-bromo-3-(2-chloro-6-fluorophenyl)-5-(1-(4-fluorophenyl)-5-(trifluoromethyl)-1H-pyrazol-4-yl)isoxazole], the IC50 (IL-17FF; [5]) is reported as 100 to 1000 nM, the IC50 (IFN-γ; [6]) is reported as 100 to 1000 nM and the IC50 [1, 7] is reported as 100 to 1000 nM.
